Measured values taken from patent publication US20090035345A1, “Nuclear Receptors Agonists for Treatment of Atherosclerosis and/or Related Cardiovascular Disease” (ACADEMISCH MEDISCH CENTRUM, BUREAU, priority 2005, published 2009).

Assays:
human SMCs = assay: DNA synthesis assay ([3H]thymidine incorporation) in FBS-stimulated cultured SMCs; type: cell-based
Description: Human SMCs were explanted from umbilical cord arteries. Cells were cultured in DMEM (Invitrogen Life Technology, Breda, The Netherlands) with 10% (v/v) fetal bovine serum (FBS) with penicillin and streptomycin (Invitrogen). Cells were used at passages five to seven. […] To determine cellular viability, cells were washed with PBS and subsequently incubated in medium in the presence of 0.5-mg/ml 3-(4,5-dimethylthiazol-2-yl)-2,5-diphenyltetrazolium bromide (MTT; Sigma Diagnostics, St. Louis). After two hours, medium was discarded, formazan crystals were dissolved in isopropanol and optical density was measured at 590 nm. Apoptosis was induced by incubating cells for 24 hours in medium with 0.25 μM staurosporine (Sigma). Subsequently, SMCs were fixed, stained with Hoechst dye and the relative number of apoptotic nuclei was determined.
SMCs were seeded in 24-well plates at 1−4×10^4 cells per well and reached 60% to 70% confluency after 24 hours. SMCs were made quiescent by incubation for 24 hours in FBS-free medium. 6-MP was dissolved in dimethylsulfoxide and applied one hour before FBS stimulation. SMCs were stimulated for 24 hours with 10% (v/v) FBS and subsequently cells were labeled for 18 hours with 0.25 μCi/well [methyl-3H]thymidine (Amersham Biosciences, Buckinghamshire, UK). Incorporated radioactivity was precipitated for 30 min at 4° C. with 10% (w/v) trichloroacetic acid, washed twice with 5% (w/v) trichloroacetic acid, and dissolved in 0.5 N NaOH (0.5 mL per well). Incorporated [^3H]thymidine was measured by liquid-scintillation counting.
(§1) The following small interfering (si)RNA sequences were used: Nur77 siRNA, 5′-CAG UCC AGC CAU GCU CCU C dTdT-3′, as described previously^20, and control siRNA, 5′-CAG ACG AGC CUU GCU CGU C dTdT-3′ (Ambion Inc., Austin, Tex.). Five μg of siRNA was transfected into 0.5−1×10^6 SMCs, using Nucleofector reagent for SMCs (Amaxa) as per the manufacturer's recommendations. Total mRNA was isolated five days after transfection, using the absolutely mRNA miniprep kit (Stratagene, La Jolla, Calif.). Subsequent cDNA synthesis was performed using the iScript cDNA synthesis kit (Biorad, Hercules, Calif.). Real-time polymerase chain reaction (PCR) was performed using SYBR green mix (Biorad) in the MyIQ System (Biorad). Primers for Nur77 were as follows: (forward) 5′-[…]-3′ and (reverse) 5′-[…]-3′. As a control for equal amount of first strand cDNA in different samples we corrected for Ribosomal Phosphoprotein (P0) mRNA levels, which were determined with the following primers (forward) 5′-[…]-3′ and (reverse) 5′-[…]-3′.
as §1, with “iscript” for “iScript”

[1] = test system: cuff-induced neointima formation in mouse femoral artery; assay: Femoral artery cuff murine model, 6-MP-eluting cuffs; type: in vivo; conditions: for cuff-induced neointima formation (intimal area): 4 weeks
Excerpt: All animal work was approved by AMC institutional regulatory authority and carried out in compliance with guidelines issued by the Dutch government. Wild-type FVB mice (Wt), transgenic mice expressing the full-length Nur77 gene (Nur77), or mice expressing a dominant-negative variant of Nur77 (ΔTA) (the latter two strains under control of the SM22α promoter, which directs the expression of transgenes specific to SMCs), in an FVB background, were used for experiments. Male mice, 10-12 weeks old, were fed a standard chow diet. At the time of surgery, mice were anaesthetized with an intraperitoneal injection of 5 mg/kg Dormicum (Roche, Basel, Switzerland), 0.5 mg/kg Dormitor (Orion, Helsinki, Finland) and 0.05 mg/kg Fentanyl (Janssen, Geel, Belgium). The femoral artery was dissected from its surroundings and loosely sheathed with a non-constrictive cuff. Either a control, empty cuff or a 6-MP eluting cuff (0.5% or 1% w/w) was used (n=6/group).
Wt and Nur77-overexpressing transgenic mice were sacrificed at 28 days after cuff placement, whereas ATA transgenic mice were sacrificed at 14 days after surgery. The thorax was opened and a mild pressure-perfusion (100 mmHg) with 4% (v/v) formaldehyde in 0.9% (w/v) NaCl was performed for 5 min by cardiac puncture. After perfusion, femoral arteries were harvested, fixed overnight in 4% (v/v) formaldehyde, dehydrated and paraffin embedded. Serial cross-sections (5 μm thick) for histological analysis were used throughout the entire length of the cuffed femoral artery. All samples were routinely stained with hematoxylin-phloxine-saffron (HPS). Weigert's elastin staining was used to visualize elastic laminae. Ten equally spaced cross-sections were used in all mice to quantify intimal lesions. Using image analysis software (Leica Qwin, Wetzlar, Germany), total cross sectional medial area was measured between the external and internal elastic lamina; total cross sectional intimal area was measured between the endothelial cell monolayer and the internal elastic lamina.
In vitro experiments were repeated at least twice and are presented as mean±SD and were analyzed by the Student t-test. Animal experiments are presented as mean±SEM and were analyzed using the Mann-Whitney U-test (SPSS 11.5 for Windows). P-values less than 0.05 were regarded as statistically significant.

[2] = Nur77 transgenic mice, 0.5% 6-MP cuff
[3] = Nur77 transgenic mice, 1% 6-MP cuff

Sc1ncnc2nc[nH]c12 [6-MP, 6-mercaptopurine]
DNA synthesis in SMCs (human SMCs; 25 μM or 50 μM): reduced | inhibition of DNA synthesis (human SMCs; SMCs transfected with Nur77 (TR3)-specific siRNA): 41% | inhibition of DNA synthesis (human SMCs; SMCs transfected with control siRNA): 61% | DNA synthesis in SMCs (human SMCs; increasing concentrations, 10% FBS): inhibits DNA synthesis | intima/media ratio [1, 2]: 0.47±0.05 | cuff-induced neointima formation (intimal area) [1, 2]: substantially reduced | intima/media ratio [1, 3]: 0.30±0.06 | cuff-induced neointima formation (intimal area) [1, 3]: significant inhibition | medial areas of the cuffed femoral arteries ([1]; Wt and Nur77 transgenic mice): No changes | intima/media ratio ([1]; Wt mice, 0.5% 6-MP cuff): 0.75±0.05 | cuff-induced neointima formation (intimal area) ([1]; Wt mice, 0.5% 6-MP cuff): did not show a decrease | intima/media ratio ([1]; Wt mice, 1% 6-MP cuff): 0.51±0.03 | cuff-induced neointima formation (intimal area) ([1]; Wt mice, 1% 6-MP cuff): significant inhibition | neointima formation (intimal area) ([1]; ΔTA transgenic mice, 0.5% 6-MP cuff, 2 weeks): no significant effect | neointima formation (intimal area) ([1]; ΔTA transgenic mice, 1% 6-MP cuff, 2 weeks): no significant effect | media thickness ([1]; ΔTA transgenic mice, 2 weeks): did not change
